Row | SMILES | melting point [°C]
1 | CC=CC(=O)Nc1ccc2c(Nc3cccc(Br)c3)ncnc2c1 | > 250
2 | N#Cc1ccc(NC(=O)c2cccc(S(=O)(=O)N3CCOCC3)c2)c(-c2n[nH]c(=O)o2)c1 | 283 to 285
3 | CCOc1nc(Nc2cccc(C(F)(F)F)c2)nc(N2CCN(C(=O)c3ccn(CC)n3)CC2)n1 | 145 to 148
4 | COc1ccc(N2CCOP(=O)(Oc3ccccc3)OCC2)cc1 | 124 to 126
5 | O=C1C(CCO)Oc2ccc(-c3ccccc3)cc2N1Cc1cccc(Cl)c1 (stereo not given) | 119 to 121
6 | Cc1cccc2nc3n(c12)CC(c1ccccn1)S3=O (stereo not given) | 148
7 | Cc1cn(C2CC(O)C(COC(=O)Oc3ccc([N+](=O)[O-])cc3)O2)c(=O)[nH]c1=O (stereo not given) | 145 to 146
8 | COc1cc(Nc2ncnc3cc(OCCCc4ccncc4)c(OC)cc23)c(OC)cc1Cl | 205 to 208
9 | Oc1ccc(-c2cc3cc(F)cc(F)c3o2)cc1 | 152 to 154
10 | O=C(NCc1ccc(Cl)cc1)c1cc2c(O)c(C(=O)NCc3ccc(Cl)cc3)cnc2o1 | 230 to 245
11 | c1cc(C2CCCCC2)ccc1N=C1NCCCN1 | 179 to 181
12 | CC(C)CCn1cc(-c2cnc3c(c2)N(Cc2c(F)ccc(F)c2Cl)CCN3)cn1 | 134
13 | Cc1c(CC(=O)O)oc2ccc(F)cc12 | 129 to 130
14 | CN1N=C(c2ccccc2)C(C)(Cc2ccccc2)NC1=O (stereo not given) | 174 to 175
15 | CN1CC(C[N+]2([O-])CC(=O)NC2=O)CC2c3cccc4[nH]cc(c34)CC21 (stereo not given) | 163 to 165
16 | COc1cccc(C(CNC(=O)Cc2c(Cl)cncc2Cl)c2ccccc2)c1 (stereo not given) | 142 to 143
17 | O=C(COc1cc(-c2ccccc2)on1)NCCO[N+](=O)[O-] | 113 to 114
18 | C=CCN1CC(C)N(C(c2cccc(O)c2)c2cccc(C#N)c2)CC1C (stereo not given) | 169 to 171
19 | N#CCc1cccc(-c2ccc(OCCCC(=O)NO)cc2)c1 | 140 to 144
20 | O=C(CCCCCNC(=O)CCCc1ccccc1)NO | 92 to 93
21 | COc1ccccc1C1(C(C)(C)O)CCN(C)CC1 | 110 to 111
22 | CCOC(=O)NNc1cc(C)c(-c2ccc(C#N)cc2)nn1 | 189 to 191
23 | C=C(C(=O)OC)C(O)c1c(C)n(C(=O)OC(C)(C)C)c2ccc(C)c(O)c12 (stereo not given) | 155 to 156
24 | COc1ccc(CS[C@@H]2C[C@@H](C(=O)N(C)OC)N(S(=O)(=O)c3ccc4ccccc4c3)C2)cc1 | 101 to 102
25 | O=C(O)c1cc(-c2ncc(C(F)(F)F)cc2Cl)ccc1Cl | 149 to 151

Row | SMILES | melting point [°C]
26 | CC(C)(O)Cn1c(Oc2ccc(-n3c4ncccc4n4ccnc34)cc2)nc2ccccc21 | 208 to 211
27 | C=C(c1cc(Cl)ccc1N1CCCCC1)C(C(N)=O)c1ccc(C(=O)OCC)cc1 (stereo not given) | 142 to 145
28 | Fc1ccc2c(c1)C(c1ccccc1F)=NCCN2C1=NCCO1 | 180 to 181
29 | CCCCCCCCCC1(C)NC(=S)NC1=S (stereo not given) | 88 to 89
30 | COCCOc1cc(CCC(=O)O)n(Cc2ccc(Cl)cc2Cl)n1 | 111 to 113
31 | O=C(Nc1cccc(Cc2ccccc2)c1)c1ccn2c1CSC2c1cccnc1 (stereo not given) | 140
32 | CC1(C)CC(=O)Nc2cc3nc(-c4ccc(-n5ccnc5)cc4)[nH]c3cc21 | > 300
33 | CCOc1c(Cc2c[nH]c3ccccc23)[nH]c(=O)c(CC(C)C)[n+]1[O-] | 192 to 193
34 | Cc1ccc(S(=O)(=O)NC(=S)Nc2cnccc2N)cc1 | 185 to 187
35 | CCCCc1cc2c(=O)n3cc(C(=O)OC)ccc3nc2s1 | 137 to 138
36 | N#Cc1cccc(C2=Nc3cc(O)c(-c4ccc(F)cc4)cc3NC(=O)C2)c1 | > 250
37 | CCCC#Cc1ccnc2[nH]cc(-c3ccnc(N)n3)c12 | > 210
38 | Cc1nn(-c2cc(CC(Cl)C(=O)NC3CC3)c(Cl)cc2Cl)c(=O)n1C(F)F (stereo not given) | 139 to 143
39 | COc1cccc(-c2cc3cnc(N)nc3nc2N)c1 | 284 to 286
40 | COC(=O)c1ccc(Cc2cn(C)c3ccc(CC(C)C(=O)O)cc23)c(OC)c1 (stereo not given) | 149 to 151
41 | CC(=O)NCCc1c(-c2ccccc2)oc2ccc3c(c12)OCCO3 | 192
42 | CCNC(=O)N(C)C(=O)Nc1ccccc1 | 80.5 to 81.5
43 | CCc1cc(NC(=O)N2CCc3cc(OC)c(C(F)(F)F)cc32)cc(-c2cccnc2)c1 | 205 to 207
44 | Cc1cc(-c2ccc(Cl)cc2)cn2cc(C(=O)NC(Cc3ccc(OCc4ccccc4)cc3)C(=O)O)nc12 (stereo not given) | 249 to 250
45 | O=c1[nH]ncc2[nH]c(-c3ccc(OC(F)F)c(OC4CC4)c3)c(C3CC3)c12 | 248 to 249
46 | CCN(CC)C(=O)c1cccc(-c2nc(=O)c3ccccc3s2)n1 | 194
47 | CC(C)(C)c1ccccc1N1CCC(N)=N1 | 114
48 | CC(=O)N1CCN=C1Nc1ccnn1-c1cccc(C(F)(F)F)c1 | 194 to 197
49 | COc1cc2c(cc1-c1cccc(F)n1)-c1c(-c3cncs3)c3c(n1CC2)C(=O)N(C(C)(C)C)CCOC3 | 232 to 234
50 | CC1(CNC(=O)OCc2ccccc2)CCCCn2c1nc(-c1ccncn1)cc2=O (racemic) | 118 to 120

Row | SMILES | melting point [°C]
51 | O=c1oc2c(c(O)c1C(c1cccc(S(=O)(=O)Nc3ccccc3)c1)C1CC1)CCCCCC2 (stereo not given) | 200 to 203
52 | CCC(C)N(C)C(=O)c1cc(-c2ccccc2)c2sccc2c1 (stereo not given) | 105
53 | CN(C)c1ccc(C(=O)c2ccncc2)cc1 | 122 to 124
54 | CC(C)(C#N)c1cc(C=Cc2ccc(OS(N)(=O)=O)cc2)cc(Cn2cncn2)c1 | 151 to 152
55 | COC(=O)C(Oc1ccc(C(F)(F)F)cc1)c1ccc(OCCCOc2ccc(Cl)cc2)cc1 (stereo not given) | 83 to 84
56 | c1cn(CCC23CC4CC(CC(C4)C2)C3)cn1 | 64 to 65
57 | CC(=O)Nc1c(-c2cccc(-n3c(N)nc4ccccc43)c2)cnn1C | 135 to 137
58 | CON1CCC2(CC1)C(=O)C(c1c(C)cc(C)cc1C)([N+](=O)[O-])C(=O)N2C (stereo not given) | 127 to 129
59 | CCOC(=O)CC1SC2=Nc3ccccc3CN2C1=O (stereo not given) | 130 to 142
60 | CCOC(=O)C1C(=O)Nc2ccccc2SC1c1ccccc1 (stereo not given) | 199
61 | O=C(NCCn1c2ccccc2c(=O)c2ccccc21)OCc1ccccc1 | 224 to 226
62 | CCOC(=O)c1nn(-c2ccc(Cl)cc2Cl)c(-c2ccc(Br)cc2)c1C | 133
63 | Cc1c(Cc2cccnc2)sc2cc(Br)ccc12 | 69 to 70
64 | O=C1CCC(N2Cc3cc(CNC(=O)Nc4ccc(F)cc4)ccc3C2=O)C(=O)N1 (stereo not given) | 262 to 264
65 | CCOCCn1c(NC2CCN(CCC3(c4ccc(C)c(C)c4)CCN(C(=O)c4cc(OC)c(OC)c(OC)c4)C3)CC2)nc2ccccc21 (stereo not given) | 108 to 119
66 | CS(=O)(=O)Nc1ccc(NC(=O)CCl)cc1 | 174 to 177
67 | CC(NC(=O)Cc1cc(F)cc(F)c1)C(=O)NC1C(=O)NCc2ccc(F)cc21 (stereo not given) | 195 to 200
68 | N#CN=C(Nc1cccnc1)NC1(c2ccccc2)CC=CC1 | 285 to 288
69 | N#Cc1cc(Cc2ccncc2)cc(-c2cccc([N+](=O)[O-])c2)c1O | 225
70 | CCCc1nc(C(C)(C)O)c(C(=O)OCOC(=O)OC(C)C)[nH]1 | 144 to 146
71 | CCN(CC)Cc1ccnc(F)c1C=NO | 97 to 99
72 | CCOC(=O)C1=C(C)N=C(N)N(C(=O)OCC)C1c1cccc([N+](=O)[O-])c1 (stereo not given) | 166 to 168
73 | CSCC(=O)c1cc(C(C)(C)C)c(O)c(C(C)(C)C)c1 | 108 to 110
74 | CNC(=O)Nc1ccc(OCCNCC(O)c2ccc(O)cc2)cc1 (stereo not given) | 155 to 160
75 | CC1(C)CCC(C)(C)C1OS(C)(=O)=O | 46

Row | SMILES | melting point [°C]
76 | N#Cc1cscc1C#N | 170 to 171
77 | C#CCn1c(=O)sc2cc(F)c(-c3ccc(C(F)(F)F)n(C)c3=O)cc21 | 150 to 151
78 | Cc1scc2c1N(C(=O)N1CCCC(CCCN(C)C)C1)c1ccccc1NC2=O (stereo not given) | 137 to 139
79 | CC(C)(C)c1cc(CCC(=O)O)cc(-n2nc3ccc(Sc4ccccc4)cc3n2)c1O | 154 to 156
80 | Cc1nc2c(ncn2COCCO)c(=S)[nH]1 | 190 to 193
81 | O=C(Cc1ccc(Cl)c(Cl)c1)N1CCN2CCCC[C@@H]21 | 102 to 104
82 | CC(C#CCOc1cccc(Oc2ccccc2)c1)N(O)C(N)=O (stereo not given) | 98 to 100
83 | CCOC(=O)COc1c(C(=O)OC)cc(Cl)cc1[N+](=O)[O-] | 68 to 70
84 | CCCC1(C)C(=O)N(CCl)S(=O)(=O)N1C (stereo not given) | 99 to 100
85 | O=C1CCC(c2ccccc2)(N2CCCCC2)CC1 | 116 to 117
86 | CC(C)CN(C(=O)N(CCCl)N=O)C1O[C@H](CO)[C@H](O)[C@H](O)[C@H]1O (stereo not given in full) | 48 to 53
87 | CCc1ccccc1N1CCN(C(=O)Nc2nc3ccccc3nc2OC)CC1 | 191 to 193
88 | O=C(c1ccccc1)c1c[nH]c2ccc(OCc3ccc4ccccc4n3)cc12 | 214 to 216
89 | C=C(c1ccc(-n2ccnc2)nc1)C(O)(Cn1cncn1)c1ccc(F)cc1F (stereo not given) | 145 to 148
90 | CC(=O)Nc1ccc(Nc2c(CC3CC4C=CC3C4)cc(C(=O)O)cc2S(=O)(=O)NC(C)=O)cc1 (stereo not given) | 270
91 | Oc1nc2ccc(Br)cc2[nH]1 | 305 to 307
92 | CC#CCC/C=C/CC(=O)O | 43 to 45
93 | CCc1nn(CC(=O)NN)c(CC)c1Oc1cc(Cl)cc(Cl)c1 | > 250
94 | O=C1C2=C(CCCC2)C(=O)N1c1ccc(Cl)c(CO)c1 | 77 to 79
95 | COc1cccc(C23CN(C)CC2CC32OCC(C)(C)CO2)c1 (stereo not given) | 132 to 135
96 | C=Cn1cc(C(=O)O)c(=O)c2cc(F)c(O)nc21 | 256 to 259
97 | Cc1cccc2c1nc(-c1ccccc1[N+](=O)[O-])n2CC(C)O (stereo not given) | 171 to 172
98 | S=c1[nH]ccn1C1CCc2ccccc21 (stereo not given) | 136 to 137
99 | O=P1(O)Oc2c(-c3ccc(Cl)cc3)cc(Cl)cc2-c2ccc(Cl)cc21 | 260
100 | O=C(Nc1ccc(CCc2ccc(O)c(O)c2)cc1)C(=O)C1=C(O)c2ccccc2SC1 | 166 to 167

From a melting point compilation (Tetko et al.; mined from patent text by program, amines drawn as free bases though some values may be those of a salt)
